Measured values published in paper PMC3481155, “AhR activation underlies the CYP1A autoinduction by A-998679 in rats” (Frontiers in Genetics, 2012).

How the values were obtained:
[1] = tested on: CYP1A2; assay: CYP1A2 mRNA induction in primary dog hepatocytes; assay type: cell-based; details: 10 μM, 48 h, data not shown
Method: Rat hepatocytes were isolated in a perfusion procedure as described previously (Elliget and Kolaja, [1983]; Waring et al., [2001]). The beagle dog hepatocytes were isolated in the same manner, except for adjustment of flow rate and buffer volume to scale to liver size. Cells were plated at a seeding density of 1.0 × 10^6 cells per well on 6-well, collagen-type I coated plates (BD Biosciences, Bedford, MA) in hepatocyte plating medium (Celsis, Baltimore, MD). Cells were allowed to attach for 24 h in a 37°C humidified incubator with a 5% CO2 atmosphere and were dosed for 24 h (rat) or 48 h (dog) with vehicle control [0.1% DMSO (v/v)] or 10 μM A-998679 in fresh treatment media (Celsis hepatocyte incubation media) every 24 h. After the last incubation, cells were lysed in 1 ml of Qiazol (Qiagen) and stored at −80°C until RNA isolation. Cryopreserved human hepatocytes (donor designation Hu4198; Invitrogen Life Technologies, Carlsbad, CA) were thawed and plated according to the manufacturer's protocol and allowed to incubate for 24 h. […]
RNA samples were diluted with RNase-free molecular biology grade water to a concentration of 20 ng/μl total RNA. […] Results were analyzed by calculating the fold change of CYP1A1 and/or CYP1A2 mRNA levels normalized to 28S rRNA (ΔΔ Ct) in compound treated cells or tissues compared to vehicle levels. […]

[2] = tested on: multidrug resistance-associated protein (Mrp3); assay: Mrp3 expression in rat liver; assay type: in vivo; details: treated rats; data not shown
Method: All animal experiments were conducted in accordance with the Guiding Principles in the Use of Animals in Toxicology (http://www.toxicology.org/ai/air/air6.asp) and were approved by Abbott's Institutional Animal Care and Use Committee (IACUC). Male Sprague-Dawley rats [Crl:CD®(SD)IGS BR], weighing ~250 g at study initiation were obtained from Charles River Laboratories, Inc. (Wilmington, MA). Rats were housed singly in ventilated, stainless steel, wire-bottom hanging cages and fed non-certified Rodent Chow (Harlan Labs, Madison, WI), and water ad libitum and acclimated for at least 5 days after arrival. […] Serum clinical chemistry parameters were quantified using an Aeroset Clinical Chemistry Analyzer (Abbott Laboratories, Abbott Park, IL) and included alanine amino transferase (ALT), aspartate amino transferase (AST), gamma glutamyltransferase (GGT), and alkaline phosphatase (ALP) activities.
Frozen liver or jejunum were immediately added to 4 ml of TRIzol reagent (Invitrogen Life Technologies) and homogenized using a Polytron 300D homogenizer (Brinkman Instruments, Westbury, NY). […] Nucleic acid concentration was determined by OD 260 nm (Smart-Spec, Bio-Rad Laboratories, Hercules, CA), and RNA integrity was evaluated using an Agilent 2100 bioanalyzer (Agilent Technologies, Foster City, CA). […]

Compound: N#Cc1cccc(-c2noc(-c3cccnc3)n2)c1 [A-998679, 3-(5-pyridin-3-yl-1,2,4-oxadiazol-3-yl) benzonitrile]
- CYP1A2 mRNA induction [1]: also observed
- expression of Mrp3 in liver [2]: increased expression
